Patent publication US8158621B2, “Methods of treating or preventing autoimmune diseases with 2,4-pyrimidinediamine compounds” (Rigel Pharmaceuticals, Inc., priority 2002, dated 2012)

The compounds below were run on Human Jurkat T-cells (clone N) (assay: Jurkat T-cell activation (anti-TCR, CD69 upregulation)). Conditions: not given.
Assay type: cell-based
Experimental: The screening process took place over three days.
On the first day of the screen, cultured cells were spun down on a centrifuge (1000 rpm, 5 minutes) and resuspended at 3.0×10^5 cells/ml in RPMI+5% FBS. On the second day of the screen, cells were spun down at 1000 rpm for 5 minutes and resuspended in RPMI+5% FBS at 1.3×10^5 cells/ml. 85 μl of this cell suspension were added to the wells of U-bottom 96 well plates (Corning) 85 μl of compound or diluted RPMI+5% FBS (as a control) only was added to each well and incubated at 37° C. for 1 hour. The cells were then stimulated with anti-TCR (C305) at: 500 ng/ml by adding a 8× solution in 25 μl to the plated cells. The cells were then incubated at 37° C. for 20 hrs.
On the third day of the screen, the plates were spun at 2500 RPM for 1 minute on a Beckman GS-6R centrifuge, and the medium was then removed. 50 μl staining solution (1:100 dilution of anti-CD69-APC antibody (Becton Dickenson) in PBS+2% FBS) was then added to each well, followed by incubation of the plates 4 degrees for 20 minutes in the dark. 150 μl of wash buffer (PBS+2% FBS) was then added to each well, and the plates were spun at 3000 RPM for 1 minute. The supernatant was again removed, and the pellet was resuspended by vortexing gently. 75 μl of PBS+2% FBS +Cytofix (1:4 dilution) was then added, the plates gently vortexed and wrap in aluminum foil. Cells from the plates were read using a flow cytometer coupled to an automated liquid handling system.
Varied concentrations of compound were compared to solvent only to determine the inhibition of T-cell activation IC50 of each compound.

SMILES | IC50 [µM]
CCOC(=O)COc1ccc(Nc2ncc(F)c(Nc3ccc(OCC(=O)OCC)c(Cl)c3)n2)cc1Cl [Compound R926676] | > 10
CC1(C)Oc2ccc(Nc3nc(Cl)ncc3F)cc2NC1=O [Compound R940322] | 4.57
O=C(COc1ccc(Nc2ncc(F)c(Nc3ccc4c(c3)OCCO4)n2)cc1)NCCO [Compound R909239] | 3.06
Cc1cc(Nc2ncc(F)c(Nc3ccc(O)c(C)c3)n2)ccc1O [Compound R926469] | > 10
N#Cc1cnc(Nc2ccc(OCC(=O)N3CCCCC3)cc2)nc1Nc1ccc(OCC(=O)N2CCCCC2)cc1 [Compound R925855] | > 10
CCOC(=O)COc1ccc(Nc2ncc(F)c(Nc3ccc4c(c3)OCCO4)n2)cn1 [Compound R926740] | > 10
CCOC(=O)CSc1ccc(Nc2ncc(F)c(Nc3ccc4c(c3)OCCO4)n2)cn1 [Compound R926727] | > 10
N#CCOc1ccc(Nc2ncc(F)c(Nc3ccc(OCC#N)cc3)n2)cc1 [Compound R945032] | 15.2
Cn1nc(I)c2cc(Nc3ncc(F)c(Nc4ccc(I)c(O)c4I)n3)ccc21 [Compound R935221] | > 10
CC(=O)Nc1cccc(N(C(C)=O)c2ncc(F)c(N(C(C)=O)c3cccc(NC(C)=O)c3)n2)c1 [Compound R950244] | > 10
Cc1cnc(Nc2ccc(OCc3nnn(C)n3)cc2)nc1Nc1cccc(O)c1 [Compound R920893] | 1.4
COc1ccc(Nc2ncc(C)c(Nc3ccc(OC)c(-c4ccccc4)c3)n2)cc1-c1ccccc1 [Compound R935002] | > 10
COc1ccc(Nc2ncc(F)c(Nc3ccc(OC)c(-c4ccccc4)c3)n2)cc1-c1ccccc1 [Compound R926399] | > 10
CNC(=O)CNc1cccc(Nc2ncc(F)c(Nc3ccc4c(c3)OCCO4)n2)c1 [Compound R950191] | 2.59
Fc1cnc(Nc2ccc3c(c2)OCCO3)nc1Nc1ccc2[nH]ncc2c1 [Compound R935267] | 3.93
CCOC(=O)COc1ccc(Nc2nc(Nc3ccc(OCC(=O)OCC)cc3)c(NC(=O)Nc3ccccc3)c(C(=O)OCC)n2)cc1 [Compound R926571] | > 10
CCOC(=O)c1cnc(Nc2ccc3cn[nH]c3c2)nc1Nc1ccc2cn[nH]c2c1 [Compound R926320] | > 10
CCOC(=O)c1cnc(Nc2cccc(OCC(=O)NC)c2)nc1Nc1cc(OC)cc(OC)c1 [Compound R926801] | > 10
CSc1nc2ccc(Nc3ncc(F)c(Nc4ccc5c(c4)OCCO5)n3)cc2s1 [Compound R950201] | 4.5
O=C(O)COc1ccc(Nc2ncc(F)c(Nc3ccc(OCC(=O)O)cc3)n2)cc1 [Compound R926560] | > 10
Fc1cnc(Nc2ccc3c(c2)OCCO3)nc1Nc1ccc(OCCN2CCOCC2)cc1 [Compound R926711] | 3.79
COC(=O)Cn1ncc2cc(Nc3nc(Nc4ccc5c(c4)OCCO5)ncc3F)ccc21 [Compound R935249] | 4.83
O=C1CCOc2ccc(Nc3ncc(F)c(Nc4ccc5c(c4)C(=O)CCO5)n3)cc21 [Compound R950378] | > 10
CC(C)(C)OC(=O)COc1ccc(Nc2ncc(F)c(Nc3ccc(OCC(=O)OC(C)(C)C)cc3)n2)cc1 [Compound R926574] | > 10

Next, values leading:

IC50 [µM] | SMILES
> 10 | CCOC(=O)COc1cccc(Nc2ncc(F)c(Nc3ccc4c(c3)C(=O)OC4)n2)c1 [Compound R940285]
> 10 | CNC(=O)COc1cccc(Nc2ncc(F)c(Nc3cccc(-c4nn[nH]n4)c3)n2)c1 [Compound R926855]
4.11 | COC(=O)COc1cccc(Nc2ncc(F)c(Nc3ccc4c(c3)OCCCO4)n2)c1 [Compound R935185]
2.22 | CNC(=O)COc1cccc(Nc2ncc(F)c(Nc3cccc(OC)c3)n2)c1 [Compound R926738]
3.33 | O=C(c1cc2cc(Nc3ncc(F)c(Nc4ccc5c(c4)OCCO5)n3)ccc2o1)N1CCOCC1 [Compound R926492]
3.32 | COC(=O)c1cc(Nc2ncc(F)c(Nc3ccc(OC(C)C)cc3)n2)cn1C [Compound R935164]
1.98 | Cc1noc(COc2ccc(Nc3nc(Nc4cccc(O)c4)ncc3F)cc2)n1 [Compound R935147]
3.48 | CNC(=O)COc1cccc(Nc2ncc(F)c(Nc3cccc(C(C)C)c3)n2)c1 [Compound R940288]
5.26 | CNC(=O)COc1cccc(Nc2ncc(F)c(Nc3ccc4c(c3)OC(F)(F)C(F)(F)O4)n2)c1 [Compound R926732]
3.11 | Oc1cccc(Nc2ncc(F)c(Nc3ccc4cn[nH]c4c3)n2)c1 [Compound R935262]
> 10 | CNC(=O)COc1cccc(Nc2ncc(F)c(Nc3ccc4c(c3)N(C)CCO4)n2)c1 [Compound R909259]
3.37 | CN(CCO)C(=O)c1cc2cc(Nc3ncc(F)c(Nc4cccc(O)c4)n3)ccc2o1 [Compound R926725]
3.68 | CNC(=O)COc1cccc(Nc2ncc(F)c(Nc3ccc(OC)c(CN(C)C)c3)n2)c1 [Compound R940321]
3.09 | CNC(=O)c1cc(COc2cccc(Nc3ncc(F)c(Nc4ccc5c(c4)OCCO5)n3)c2)co1 [Compound R935213]
9.74 | COC(=O)COc1cccc(Nc2ncc(F)c(Nc3cc(C)c(OC)c(C)c3)n2)c1 [Compound R945153]
> 10 | O=C(COc1cccc(Nc2ncc(F)c(Nc3ccc4c(c3)C(=O)OC4)n2)c1)NCC(O)CO (stereo not shown) [Compound R940293]
22.7 | COC(=O)Cn1ncc2ccc(Nc3nc(Nc4ccc(OC(C)C)cc4)ncc3F)cc21 [Compound R935218]
5.63 | CNC(=O)COc1cccc(Nc2ncc(F)c(Nc3ccc(C(C)(C)C)cc3)n2)c1 [Compound R926714]
13.1 | COC(=O)COc1cc(Nc2ncc(F)c(Nc3cccc(O)c3)n2)cc(OCC(=O)OC)c1 [Compound R926926]
> 10 | CCOC(=O)COc1cccc(Nc2ncc(F)c(Nc3ccc(O)c(C(=O)OC)c3)n2)c1 [Compound R950293]
13.9 | COC(=O)COc1cccc(Nc2ncc(F)c(Nc3cc(C)c(O)c(C)c3)n2)c1 [Compound R945139]

Same assay, conditions: Homo sapiens

SMILES | IC50 [µM]
Cc1ccc(Nc2ncc(F)c(Nc3ccc(C)c([N+](=O)[O-])c3)n2)cc1[N+](=O)[O-] [Compound R950144] | > 10

Same assay, conditions: Homo sapiens, Jurkat

SMILES | IC50 [µM]
COc1ccc(C(Nc2ncc(F)c(NC(c3ccc(OC)cc3)c3ccc(OC)cc3)n2)c2ccc(OC)cc2)cc1 [Compound R935004] | > 10
Cc1c(O)ccc(Nc2ncc(F)c(Nc3ccc(O)c(C)c3C)n2)c1C [Compound R940217] | > 10
c1cc2c(cc1Nc1cc(Nc3ccc4c(c3)OCCO4)nc(Nc3ccc4c(c3)OCCO4)n1)OCCO2 [Compound R926516] | 17.8
CCOC(=O)c1nc(Nc2ccc3c(c2)OCCO3)nc(Nc2ccc3c(c2)OCCO3)c1N [Compound R925857] | > 10
Fc1ccc(Nc2ncc(F)c(Nc3ccc(F)cc3)n2)cc1 [Compound R926224] | > 10
Oc1cccc(Nc2ncc(C(F)(F)F)c(Nc3cccc(O)c3)n2)c1 [Compound R925863] | 2.96
Cc1cc(CNc2nc(Nc3cccc(O)c3)ncc2F)c(C)o1 [Compound R945151] | > 10
CN(C)c1ccc(Nc2ncc(F)c(Nc3ccc(N(C)C)cc3)n2)cc1 [Compound R926086] | 6.63
Cc1ccc(-c2ccccc2)cc1Nc1ccnc(Nc2cc(-c3ccccc3)ccc2C)n1 [Compound R925807] | > 10
Cc1ccc(CNc2ncc(F)c(Nc3ccc4c(c3)OCCO4)n2)cc1Cl [Compound R908696] | > 10
Oc1cccc(Nc2nc(NCC3COc4ccccc4O3)ncc2F)c1 (stereo not shown) [Compound R950214] | > 10
CN(C)c1cccc(Nc2ncc(F)c(Nc3cccc(N(C)C)c3)n2)c1 [Compound R950182] | > 10
COc1ccc(Nc2ncc(F)c(Nc3ccc4c(c3)OCCO4)n2)c(C)c1 [Compound R926845] | > 10
COC(=O)C=C1C=CC=C(Nc2ncc(F)c(NC3=CC=CC(=CC(=O)OC)C3)n2)C1 [Compound R935114] | > 10
CCc1ccc(Nc2ncc(F)c(Nc3ccc4c(c3)OCCO4)n2)cc1 [Compound R926237] | > 10
COC(=O)C1Cc2cc(N(c3ccc(C(C)(C)C)cc3)c3ncc(F)c(N)n3)ccc2O1 (stereo not shown) [Compound R926719] | > 10
Cc1cc(Nc2ncc(F)c(Nc3ccc4c(c3)OCCO4)n2)cc(C(F)(F)F)c1 [Compound R926895] | > 10
OCc1cccc(Nc2ncc(F)c(Nc3cccc(CO)c3)n2)c1 [Compound R925757] | > 10
Fc1cnc(Cl)nc1Nc1cccc(-c2nnc(-c3ccccc3)o2)c1 [Compound R926869] | > 10
CCOC(=O)C1CCN(C(=O)c2cccc(Nc3ncc(F)c(Nc4cccc(O)c4)n3)c2)CC1 [Compound R926939] | > 10
c1ccc(-c2ccccc2Nc2ccnc(Nc3ccccc3-c3ccccc3)n2)cc1 [Compound R925804] | > 10
Fc1cnc(Nc2ccc3cc[nH]c3c2)nc1Nc1ccc2c(c1)OCCO2 [Compound R926750] | 0.535

Second part, the compound after the results:

IC50 [µM] | SMILES
> 10 | COc1ccc(Nc2nc(Nc3cccc(O)c3)ncc2F)cc1OC [Compound R926147]
48.9 | COC(=O)c1cc2cc(Nc3ncc(F)c(Nc4cccc(OC(C)C)c4)n3)ccc2o1 [Compound R926487]
